Experimental data from patent US20180353501A1 (Arvinas, Inc., priority 2017, published 2018).
Read-outs that look alike come from different tables or passages of the source.

How the values were obtained:
p38δ = molecular target: T1, p38δ (Homo sapiens, UniProt O15264); test: Western blot survey of p38 isoform degradation in MDA-MB-231 cells (incl. proteasome rescue, CHX chase, washout); assay type: cell-based
T1 construct: endogenous in cells; host or cells: MDA-MB-231 (intact cells for degradation; cleared cell lysate for CETSA)
T1 sequence (O15264 1-365): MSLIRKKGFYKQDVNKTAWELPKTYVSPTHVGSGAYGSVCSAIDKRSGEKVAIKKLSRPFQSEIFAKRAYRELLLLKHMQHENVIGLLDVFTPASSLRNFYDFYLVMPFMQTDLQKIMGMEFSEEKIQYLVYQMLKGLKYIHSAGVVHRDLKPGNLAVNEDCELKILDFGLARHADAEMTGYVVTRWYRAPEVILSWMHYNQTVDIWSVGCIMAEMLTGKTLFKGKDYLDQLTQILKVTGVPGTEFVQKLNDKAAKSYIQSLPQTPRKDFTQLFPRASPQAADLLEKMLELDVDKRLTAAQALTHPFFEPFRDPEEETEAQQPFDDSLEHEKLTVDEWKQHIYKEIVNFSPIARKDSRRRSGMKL
Description: (§1) FIGS. 11A and 11B. Survey of p38 isoform degradation with foretinib-based VHL PROTACs (related to FIGS. 9A-9C and Table 13). (A) Western blots of amide series PROTACs tested in increasing concentrations (0.025, 0.100, 0.250, 1.0, 5.0 μM) on MDA-MB-231 cells, in duplicate. (B) Same as in (A) but with the phenyl series PROTACs. Summary table of the DC50 (concentration at which half-maximal degradation is achieved) and Dmax (maximum percentage of degradation achieved) is reported, per exemplary PROTAC, in Table 13.
(§2) FIGS. 13A, 13B, 13C, and 13D. Exemplary compounds 50 and 46 degrade p38 isoforms in a manner that is rapid, sustained, and proteasome-dependent. (A) MDA-MB-231 cells were either pre-treated or not with the proteasome inhibitor epoxomicin (1 μM) or the neddylation inhibitor MLN4924 (1 μM) for 30 minutes and subsequently treated with either vehicle (DMSO), exemplary compound 50 (250 nM), or exemplary compound 46 (250 nM) for 6 hours. (B) Quantitative real-time PCR was performed after 24 hours of treatment with either vehicle (DMSO), exemplary compound 50 (250 nM), or exemplary compound 46 (250 nM) in MDAMB-231 cells. The dotted line represents DMSO-treated conditions standardized to a value of 1.0 and mRNA abundance (per treatment group) is represented as a foldchange relative to that value. Data is based on biological duplicates and is normalized to beta-tubulin. (C) Cycloheximide (CHX) chase assay. MDA-MB-231 cells were pre-treated with 100 μg/mL CHX for 1 hour prior to treating for the indicated times with either vehicle (DMSO), exemplary compound 50 (250 nM), or exemplary compound 46 (250 nM). Tubulin-normalized p38α and p38δ abundance values are reported beneath individual lanes. (D) MDA-MB231 cells were treated with either vehicle (DMSO), exemplary compound 50 (250 nM), or exemplary compound 46 (250 nM) for 24 hours before re-plating onto new plastic in fresh medium for an additional 24, 48, or 72 hours (“washout” conditions).
(§3) Cell culture. MDA-MB-231 and HeLa cells were obtained from the American Type Culture Collection (ATCC), cultured in RPMI-1640 (1×) and DMEM (1×) medium, respectively, containing 10% fetal bovine serum (FBS) and 1% penicillin-streptomycin and grown in a humidified incubator at 37° C. and 5% CO2.
(§4) Lysates from MDA-MB-231 cells were washed once with ice cold PBS (1×), followed by lysis in buffer containing 25 mM Tris [pH 7.5], 0.25% sodium deoxycholate, 1% Triton X-100, supplemented with 1× protease inhibitor cocktail (Roche) and phosphatase inhibitors (10 mM NaF, 1 mM Na3VO4, and 20 mM β-glycerophosphate), unless otherwise noted. Lysates were spun at 14,000×g for 10 minutes at 4° C. and supernatant was evaluated for protein content using a Pierce BCA Protein Assay (Thermo Fisher Scientific). 25 to 50 μg of protein was loaded onto 10% SDS-PAGE gels or 4-20% Criterion TGX precast gradient gels (Bio-Rad), transferred to nitrocellulose membranes, and probed with the specified antibodies overnight at 4° C. in 1×TBS-Tween (Tris buffered saline plus 0.02% Tween 20) containing 5% non-fat milk. Immunoblots were visualized using a Bio-Rad ChemiDoc imaging instrument and subsequently processed and quantified using the accompanying Bio-Rad ImageLab software.
(§5) MDA-MB-231 cells were plated at 3×10^5 cells per well in a 6-well dish, allowed to adhere overnight, and switched to serum-free RPMI-1640 (1×) media for 16 hours. Cells were then pre-treated with cycloheximide (Sigma) at 100 μg mL^−1 for 1 hour prior to adding either vehicle (DMSO) or PROTAC (250 nM). At the indicated timepoints, cells were immediately placed on ice, rinsed with 1×PBS, lysed, and boiled.
(§6) MDA-MB-231 cells were plated at 1.5×10^5 cells per well in a 6-well dish and allowed to adhere overnight. On the following day, all cells were treated with either vehicle (DMSO) or PROTAC (250 nM). […]

p38α = molecular target: T2, p38α (Homo sapiens, UniProt Q16539); test: as above; assay type: cell-based; conditions: for Dmax: read-out: p38α Dmax (maximum percentage of degradation achieved)
T2 construct: selectively degrades p38α, whereas exemplary PROTAC 46 (10-atom linker, phenyl attachment) selectively degrades p38δ in MDA-MB-231 cells; endogenous in cells; host or cells: MDA-MB-231
Description: as §1, §2, §3, §4, §5, §6

[1] = MDA-MB-231 cells, western blot, read-out: p38α DC50 (concentration at which half-maximal degradation is achieved)
[2] = 250 nM 24 hours, then re-plated without compound
[3] = 250 nM PROTAC 6 hours, pre-treated 1 μM epoxomicin or 1 μM MLN4924

T2 sequence (Q16539 whole entry): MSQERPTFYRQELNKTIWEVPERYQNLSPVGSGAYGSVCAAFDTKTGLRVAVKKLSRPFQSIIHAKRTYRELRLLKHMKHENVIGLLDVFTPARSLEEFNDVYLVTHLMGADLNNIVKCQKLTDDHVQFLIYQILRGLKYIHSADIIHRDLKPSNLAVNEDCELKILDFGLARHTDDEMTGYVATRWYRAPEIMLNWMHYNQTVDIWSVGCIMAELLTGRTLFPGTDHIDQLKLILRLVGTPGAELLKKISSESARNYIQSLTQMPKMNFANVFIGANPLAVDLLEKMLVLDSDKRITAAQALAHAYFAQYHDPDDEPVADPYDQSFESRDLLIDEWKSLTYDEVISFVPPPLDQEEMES

| DC50 (p38δ; MDA-MB-231 cells, western blot) [nM] | Dmax (p38δ; MDA-MB-231 cells, western blot) [%] | Dmax (p38α; MDA-MB-231 cells, western blot) [%] | p38δ degradation efficacy maintained post-washout (p38δ; [2]) [h] | rescue of p38δ downregulation by proteasome / neddylation inhibitor (p38δ; [3]) | p38δ Dmax (p38δ; MDA-MB-231 cells, western blot) | DC50 (p38α; MDA-MB-231 cells, western blot, read-out: p38α DC50) [nM] | SMILES | DC50 (p38α; [1]) [nM] | p38α degradation efficacy maintained post-washout (p38α; [2]) [h] | rescue of p38α downregulation by proteasome / neddylation inhibitor (p38α; [3]) | p38α Dmax (maximum percentage of degradation achieved) (p38α; MDA-MB-231 cells, western blot) |
| --- | --- | --- | --- | --- | --- | --- | --- | --- | --- | --- | --- |
| > 5000 | 42 | 83 | – | – | – | – | COc1cc2c(Oc3ccc(NC(=O)C4(C(=O)Nc5ccc(F)cc5)CC4)cc3F)ccnc2cc1OCCCOCCCOCCC(=O)N[C@H](C(=O)N1C[C@H](O)C[C@H]1C(=O)NCc1ccc(-c2scnc2C)cc1)C(C)(C)C [Example 1] | 230 | – | – | – |
| 79.2 ± 28 | 98.4 | 35 | 24 | completely rescued | Dmax = 98.4% | > 5000 | COc1cc2c(Oc3ccc(NC(=O)C4(C(=O)Nc5ccc(F)cc5)CC4)cc3F)ccnc2cc1OCCOCCOCCOc1cc(-c2scnc2C)ccc1CNC(=O)[C@@H]1C[C@@H](O)CN1C(=O)[C@H](C(C)C)N1Cc2ccccc2C1=O [compound 46] | – | – | – | – |

| SMILES | DC50 (p38δ; MDA-MB-231 cells, western blot) [nM] | Dmax (p38δ; MDA-MB-231 cells, western blot) [%] | Dmax (p38α; MDA-MB-231 cells, western blot) [%] | p38δ degradation efficacy maintained post-washout (p38δ; [2]) [h] | rescue of p38δ downregulation by proteasome / neddylation inhibitor (p38δ; [3]) | p38δ Dmax (p38δ; MDA-MB-231 cells, western blot) | DC50 (p38α; MDA-MB-231 cells, western blot, read-out: p38α DC50) [nM] | DC50 (p38α; [1]) [nM] | p38α degradation efficacy maintained post-washout (p38α; [2]) [h] | rescue of p38α downregulation by proteasome / neddylation inhibitor (p38α; [3]) | p38α Dmax (maximum percentage of degradation achieved) (p38α; MDA-MB-231 cells, western blot) |
| --- | --- | --- | --- | --- | --- | --- | --- | --- | --- | --- | --- |
| COc1cc2c(Oc3ccc(NC(=O)C4(C(=O)Nc5ccc(F)cc5)CC4)cc3F)ccnc2cc1OCCCCOCCCCOCC(=O)N[C@H](C(=O)N1C[C@H](O)C[C@H]1C(=O)NCc1ccc(-c2scnc2C)cc1)C(C)(C)C [compound 50, N-(3-fluoro-4-((7-(4-(4-(2-(((S)-1-((2S,4R)-4-hydroxy-2-((4-(4-methylthiazol-5-yl)benzyl)carbamoyl)pyrrolidin-1-yl)-3,3-dimethyl-1-oxobutan-2-yl)amino)-2-oxoethoxy)butoxy)buto-xy)-6-methoxyquinolin-4-yl)oxy)phenyl)-N-(4-fluorophenyl)cyclopropane-1,1-dicarboxa-mide] | > 5000 | 18.5 | 99.6 | – | – | – | – | 9.5 ± 1 | 72 | completely rescued | Dmax = 99.6% |
